Laboratory results from ChEMBL document CHEMBL1201862, “PubChem BioAssay data set” (2004).
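Step 1: Grow cells in 96-well plates. Step 2: Expose to compound for 48 hours at 5 concentrations. Step 3: Interpolate endpoints linearly; if unreached, use highest concentration. GI50 marks 50% less growth.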 Activity calls are given as the source filed them. No stated cut-off is given here; in the data, active = GI50 up to about 1.1 µM and inactive = higher.

What was measured:
Test in all cases: NCI-60 cell line screen, 48 h
U-251 = system: U-251
SK-MEL-5 = system: SK-MEL-5
SR = system: SR
NCI-H460 = system: NCI-H460
CCRF-CEM = system: CCRF-CEM
COLO 205 = system: COLO 205
SN12C = system: SN12C
SW-620 = system: SW-620
NCI-H226 = system: NCI-H226
Malme-3M = system: Malme-3M
KM12 = system: KM12
SK-MEL-2 = system: SK-MEL-2
NCI-H23 = system: NCI-H23
SK-OV-3 = system: SK-OV-3
UACC-257 = system: UACC-257
OVCAR-3 = system: OVCAR-3
PC-3 = system: PC-3
MCF7 = system: MCF7
MOLT-4 = system: MOLT-4
HOP-92 = system: HOP-92
OVCAR-8 = system: OVCAR-8
SK-MEL-28 = system: SK-MEL-28
NCI/ADR-RES = system: NCI/ADR-RES
RPMI-8226 = system: RPMI-8226
SF-295 = system: SF-295
HT-29 = system: HT-29
HCT-116 = system: HCT-116
HOP-62 = system: HOP-62
MDA-MB-435 = system: MDA-MB-435
SNB-75 = system: SNB-75
K562 = system: K562
MDA-N = system: MDA-N
HL-60 = system: HL-60
MDA-MB-231 = system: MDA-MB-231
CAKI-1 = system: CAKI-1
BT-549 = system: BT-549
TK-10 = system: TK-10
LOX IMVI = system: LOX IMVI
SNB-19 = system: SNB-19
Hs-578T = system: Hs-578T
M14 = system: M14
A498 = system: A498
OVCAR-5 = system: OVCAR-5
OVCAR-4 = system: OVCAR-4
RXF 393 = system: RXF 393
IGROV-1 = system: IGROV-1
HCT-15 = system: HCT-15
UO-31 = system: UO-31
DU-145 = system: DU-145
UACC-62 = system: UACC-62
ACHN = system: ACHN
A549 = system: A549
T47D = system: T47D
NCI-H522 = system: NCI-H522
EKVX = system: EKVX
786-0 = system: 786-0
SF-268 = system: SF-268
HCC 2998 = system: HCC 2998
SF-539 = system: SF-539

Measured: GI50

CC(C)(C)[Si](C)(C)OCC1OC(n2cnc3c(N)ncnc32)C2OC(=S)OC12 (stereo unspecified)
inactive: U-251 25200 nM | SK-MEL-5 17000 nM | SR 38500 nM | NCI-H460 32700 nM | CCRF-CEM 12700 nM | COLO 205 35600 nM | SN12C 35500 nM | SW-620 32700 nM | NCI-H226 29400 nM | Malme-3M 23600 nM | KM12 35000 nM | SK-MEL-2 26000 nM | NCI-H23 21800 nM | SK-OV-3 19500 nM | UACC-257 43300 nM | OVCAR-3 29200 nM | PC-3 22000 nM | MCF7 34600 nM | MOLT-4 16100 nM | HOP-92 70800 nM | OVCAR-8 35100 nM | SK-MEL-28 38400 nM | NCI/ADR-RES 23500 nM | RPMI-8226 37900 nM | SF-295 37400 nM | HT-29 29400 nM | HCT-116 27400 nM | HOP-62 36700 nM | MDA-MB-435 19900 nM | SNB-75 29300 nM | K562 4840 nM | MDA-N 27200 nM | HL-60 > 100000 nM | MDA-MB-231 27700 nM | CAKI-1 41300 nM | BT-549 25100 nM | TK-10 > 100000 nM | LOX IMVI 28700 nM | SNB-19 52100 nM | Hs-578T 41500 nM | M14 45500 nM | A498 52700 nM | OVCAR-5 26700 nM | OVCAR-4 81300 nM | RXF 393 43900 nM | IGROV-1 25000 nM | UO-31 23500 nM | DU-145 25100 nM | UACC-62 23800 nM
26200 nM: HCT-15

CCC1(O)CC(OC2CC(N(C)C)C(OC3CC(O)C(OC4OC(C)C(=O)C=C4N)C(C)O3)C(C)O2)c2c(cc3c(c2O)C(=O)c2c(O)cccc2C3=O)C1C(=O)OC (stereo unspecified)
241 nM: HCT-15
active: U-251 3.85 nM | SK-MEL-5 4.69 nM | SR 6.25 nM | NCI-H460 < 1 nM | CCRF-CEM 1.69 nM | ACHN 20.6 nM | COLO 205 4.29 nM | SN12C 158 nM | A549 2.72 nM | T47D 29.2 nM | SW-620 < 1 nM | NCI-H226 115 nM | Malme-3M 50.8 nM | KM12 5.25 nM | SK-MEL-2 22.1 nM | NCI-H522 35.5 nM | NCI-H23 104 nM | SK-OV-3 51.8 nM | UACC-257 21.1 nM | OVCAR-3 129 nM | PC-3 5.66 nM | MCF7 10 nM | MOLT-4 1.5 nM | HOP-92 74.6 nM | OVCAR-8 4.15 nM | EKVX 22.4 nM | SK-MEL-28 27.2 nM | 786-0 2.54 nM | SF-268 199 nM | RPMI-8226 1.53 nM | SF-295 1.6 nM | HCC 2998 15.3 nM | HT-29 8.89 nM | HCT-116 < 1 nM | HOP-62 18.4 nM | MDA-MB-435 5.83 nM | SNB-75 40.2 nM | SF-539 50.1 nM | K562 < 1 nM | MDA-N 6.82 nM | HL-60 17.7 nM | MDA-MB-231 290 nM | CAKI-1 6.04 nM | TK-10 60 nM | LOX IMVI 46 nM | SNB-19 28.2 nM | Hs-578T 120 nM | M14 34.5 nM | OVCAR-5 67.8 nM | OVCAR-4 10 nM | IGROV-1 3.02 nM | UO-31 167 nM | DU-145 6.37 nM | UACC-62 12.1 nM
inactive: NCI/ADR-RES 1250 nM
